# Measurements taken from patent CN102850337A, “多氮唑联螺烯酮类化合物及其制备方法和用途” (Sichuan University, priority 2011, dated 2013).
# Read-outs that look alike come from different tables or passages of the source.
# Experiments:
# [1] = system: human breast cancer MDA-MB-231 cells [人乳腺癌MDA-MB-231细胞]; assay: CCK-8 in vitro tumour cell inhibition assay, MDA-MB-231 (Example 11, Tables 2-4); format: cell-based
# [2] = system: skin cancer A431 cells, colon cancer HCT116 cells, gastric cancer MKN45 cells, ovarian cancer SKOV-3 cells [皮肤癌A431细胞、结肠癌HCT116细胞、胃癌MKN45细胞、卵巢癌SKOV-3细胞]; assay: CCK-8 in vitro tumour cell inhibition assay (Example 10, Table 1); format: cell-based; conditions: A431, HCT116, MKN45, SKOV-3 cells; statement on Table 1 (IC50)
SMILES,"inhibition at 5 µM ([1]; 48h, read-out: inhibition rate) [%]","inhibition at 5 µM ([1]; 72h, read-out: inhibition rate) [%]","inhibition at 50 µM ([1]; 24h, read-out: inhibition rate) [%]","inhibition at 50 µM ([1]; 48h, read-out: inhibition rate) [%]","inhibition at 50 µM ([1]; 72h, read-out: inhibition rate) [%]",IC50 ([1]; 48h) [µM],IC50 ([1]; 72h) [µM],other results
"Cn1nc(-c2ccccc2)nc1N1C(=O)COC12C=CC(=O)C=C2 [LHDYX-2, 4-(1-甲基-3-苯基-1H-1,2,4-三氮唑-5-基)-1-氧-4-氮螺[4.5]癸-6,9-二烯-3,8-二酮]",94.7,96.2,100,93.5,96.4,–,–,"inhibition at 0.05 µM ([1]; 24h, read-out: inhibition rate): 19.1%; inhibition at 0.05 µM ([1]; 48h, read-out: inhibition rate): 19%; inhibition at 0.05 µM ([1]; 72h, read-out: inhibition rate): 39.4%; inhibition at 0.5 µM ([1]; 24h, read-out: inhibition rate): 17.1%; inhibition at 0.5 µM ([1]; 48h, read-out: inhibition rate): 76.4%; inhibition at 0.5 µM ([1]; 72h, read-out: inhibition rate): 95.3%; inhibition at 5 µM ([1]; 24h, read-out: inhibition rate): 39.9%"
"O=C1C=CC2(C=C1)OCC(=O)N2c1nc(-c2ccccc2)nn1-c1ccccc1 [LHDYX-1, 4-(1,3-二苯基-1H-1,2,4-三氮唑-5-基)-1-氧-4-氮螺[4.5]癸-6,9-二烯-3,8-二酮]",–,–,–,–,–,2.88,0.34,IC50 ([1]; 24h): 26 µM; inhibition of cancer cells compared with doxorubicin [2]: 对癌细胞的抑制作用高于目前临床中已广泛使用抗肿瘤药物阿霉素(Doxorubicin); inhibitory activity on cancer cells [2]: 不同程度的抑制活性
"COC1=CC(=O)C=CC12OCC(=O)N2c1nc(-c2ccccc2)nn1-c1ccccc1 (stereo not shown) [LHDYX-4, 4-(1,3-二苯基-1H-1,2,4-三氮唑-5-基)-6-甲氧基-1-氧-4-氮螺[4.5]癸-6,9-二烯-3,8-二酮]",4.3,17.2,42,98.4,100,–,–,"inhibition at 5 µM ([1]; 24h, read-out: inhibition rate (class symbol)): < 0%"
"Cn1nc(N2C(=O)COC23C=CC(=O)C=C3)nc1-c1ccccc1 [LHDYX-3, 4-(1-甲基-5-苯基-1H-1,2,4-三氮唑-3-基)-1-氧-4-氮螺[4.5]癸-6,9-二烯-3,8-二酮]",–,–,–,–,–,2.96,1.46,–
